Experimental data: EP0017102A1, “Composition containing a phenyl benzoic acid compound and acetaminophen combination for the treatment of pain and inflammation and process for preparing the same” (Merck & Co., Inc., priority 1979, dated 1980)

What was measured:
[1] = tested on: adjuvant arthritis induced in rats; assay: adjuvant arthritis analgesic bioassay (tail pinch / foot bend squeak response); format: in vivo, Sprague-Dawley rats
Source text: Since analgesic tests using intact animals are not sensitive enough to detect the analgesic activity of nonsteroidal anti-inflammatory compounds, the analgesic bioassay employed utilized inflammatory sensitization procedures, specifically adjuvant arthritis. Adjuvant arthritis induced in rats, the animals used in the bioassay, resembles rheumatoid arthritis in man with respect to the manifestation of inflammation and hyperalgesia. When the affected joints of rats with adjuvant arthritis are subjected to a gentle manipulation, preferably by extending the joint, the rats respond by squeaking, which is a definite and reproducible sign of algesia. The ability of the tested compounds to suppress this squeaking response was an accurate measure of the analgesic activity of the tested compounds.
In accordance with the adjuvant arthritis bioassay used to evaluate the analgesic activity of the combinations of compounds of the present invention, young adult Sprague-Dawley rats of either sex are rendered hyperalgesic by injection of dessicated Mycobacterium- butyricum suspended in light mineral oil (Freund's adjuvant). The mycobacteria are ground in a mortar, suspended in the oil, and sterilized in an autoclave. Each animal receives 0.5 mg of the bacteria in 0.1 ml of oil, injected subcutaneously through a 21-gauge needle into the distal third of the tail.
The animals can subsequently be used in two ways for testing the analgesic action of drugs. The day after the injection of adjuvant, the tail is found to be sensitive to touch. Approximately 16 hours after the injection, the experimenter tests the animals for the presence of hyperalgesia. This is done by holding the animal in one hand. With the thumb and forefinger of the other hand, the observer applies gentle pressure to the tail about 2.5 cm proximal to the point where the needle has been inserted. This gentle pressure is repeated at 5-sec intervals. If the rat endures five such gentle presses without emitting more than one "squeak", analgesia is considered to be present and a score of + is assigned. Two or more squeaks earns a rating of 0, or no analgesia. Before being assigned to an experiment, animals are screened and only those with the 0 rating are used.
The hyperalgesic animals are assigned randomly to drug treatments and one of the treatments is always the vehicle without the drug (placebo group). […] […] This entire procedure may be referred to as "tail pinch" .technique. Alternatively, an apparatus for applying pressure to the tail may be employed and the "squeak threshold" determined before and after drug.
The adjuvant-injected animals, if left undisturbed, develop severe arthritis which becomes especially manifest in about two weeks. […] This "foot bend" technique yields drug responses essentially identical with those obtained by the "tail pinch" procedure.
For a further description of this bioassay and its significance, reference is made to Kuzuma and Kawai, "Evaluation of Analgesic Agents in Rats with Adjuvant Arthritis", Chem. Pharm. Bull., 23 (6) 1184-1191 (1975).

[2] = tested on: female albino mice (Carworth CF-1); assay: in vivo; format: in vivo; details: Group I: Diflunisal 400 mg./kg. (100 %LD50) alone; oral; 20 tested; 14 days
Experimental: Measurements of the relative safety of the components and of the combination were carried out using acute oral toxicity studies in female mice. Randomly selected female albino mice (Carworth CF-1) weighing from 18 to 24 grams, and 6 to 7 weeks old, were used. The LD50 value for each drug was estimated from acute oral dose-response curves previously established. The following dose regimen was utilized:
The preparations were administered by gastric intubation using a metal catheter attached to a springe. The various doses were administered randomly with 20 mice per group. Food was withheld one to two hours before and three hours following drug treatment. Water was available at all times. […] Body weights were taken pretest and on days 7 and 14.

O=C(O)c1cc(-c2ccc(F)cc2F)ccc1O [Diflunisal, 2-hydroxy-5-(2',4'-difluorophenyl)benzoic acid]
14: No. Dead [2]
30%: Percent of Rats with Analgesia Diflunisal Alone ([1]; 4 Hrs. after drug, Diflunisal 8 mg./kg., 10 rats per dose)
20%: Percent of Rats with Analgesia Diflunisal Alone ([1]; 2 Hrs. after drug, Diflunisal 2 mg./kg., 10 rats per dose)
10%: Percent of Rats with Analgesia Diflunisal Alone ([1]; 4 Hrs. after drug, Diflunisal 5 mg./kg., 8 rats per dose)
0%: Percent of Rats with Analgesia Diflunisal Alone ([1]; 1 Hrs. after drug, Diflunisal 4 mg./kg., 8 rats per dose) | Percent of Rats with Analgesia Diflunisal Alone ([1]; 1 Hrs. after drug, Diflunisal 4 mg./kg., 10 rats per dose) | Percent of Rats with Analgesia Diflunisal Alone ([1]; 1 Hrs. after drug, Diflunisal 8 mg./kg., 8 rats per dose) | Percent of Rats with Analgesia Diflunisal Alone ([1]; 1 Hrs. after drug, Diflunisal 10 mg./kg., 8 rats per dose) | Percent of Rats with Analgesia Diflunisal Alone ([1]; 1 Hrs. after drug, Diflunisal 16 mg./kg., 8 rats per dose) | Percent of Rats with Analgesia Diflunisal Alone ([1]; 3 Hrs. after drug, Diflunisal 4 mg./kg., 10 rats per dose) | Percent of Rats with Analgesia Diflunisal Alone ([1]; 4 Hrs. after drug, Diflunisal 2 mg./kg., 10 rats per dose) | Percent of Rats with Analgesia Diflunisal Alone ([1]; 4 Hrs. after drug, Diflunisal 4 mg./kg., 10 rats per dose) | Percent of Rats with Analgesia Diflunisal Alone ([1]; 5 Hrs. after drug, Diflunisal 5 mg./kg., 8 rats per dose) | Percent of Rats with Analgesia Diflunisal Alone ([1]; 5 Hrs. after drug, Diflunisal 8 mg./kg., 8 rats per dose) | Percent of Rats with Analgesia Diflunisal Alone ([1]; 6 Hrs. after drug, Diflunisal 8 mg./kg., 8 rats per dose) | Percent of Rats with Analgesia Diflunisal Alone ([1]; 6 Hrs. after drug, Diflunisal 10 mg./kg., 8 rats per dose)
3: Number of Rats with Analgesia ([1]; 3 h after administration, dose 8 mg./kg., 8 rats per dose) | Number of Rats with Analgesia ([1]; 4 h after administration, dose 8 mg./kg., 10 rats per dose) | Number of Rats with Analgesia ([1]; 4 h after administration, dose 16 mg./kg., 8 rats per dose)
4: Number of Rats with Analgesia ([1]; 1 h after administration, dose 8 mg./kg., 10 rats per dose) | Number of Rats with Analgesia ([1]; 2 h after administration, dose 8 mg./kg., 10 rats per dose) | Number of Rats with Analgesia ([1]; 2 h after administration, dose 16 mg./kg., 8 rats per dose) | Number of Rats with Analgesia ([1]; 2 h after administration, dose 20 mg./kg., 8 rats per dose) | Number of Rats with Analgesia ([1]; 3 h after administration, dose 10 mg./kg., 8 rats per dose) | Number of Rats with Analgesia ([1]; 4 h after administration, dose 10 mg./kg., 8 rats per dose) | Number of Rats with Analgesia ([1]; 6 h after administration, dose 20 mg./kg., 8 rats per dose)
50%: Percent of Rats with Analgesia Diflunisal Alone ([1]; 3 Hrs. after drug, Diflunisal 8 mg./kg., 10 rats per dose)
2: Number of Rats with Analgesia ([1]; 1 h after administration, dose 2 mg./kg., 10 rats per dose) | Number of Rats with Analgesia ([1]; 2 h after administration, dose 2 mg./kg., 10 rats per dose) | Number of Rats with Analgesia ([1]; 2 h after administration, dose 4 mg./kg., 8 rats per dose) | Number of Rats with Analgesia ([1]; 3 h after administration, dose 2 mg./kg., 10 rats per dose) | Number of Rats with Analgesia ([1]; 3 h after administration, dose 5 mg./kg., 8 rats per dose) | Number of Rats with Analgesia ([1]; 5 h after administration, dose 8 mg./kg., 10 rats per dose) | Number of Rats with Analgesia ([1]; 5 h after administration, dose 10 mg./kg., 8 rats per dose) | Number of Rats with Analgesia ([1]; 5 h after administration, dose 16 mg./kg., 8 rats per dose)
1: Number of Rats with Analgesia ([1]; 1 h after administration, dose 20 mg./kg., 8 rats per dose) | Number of Rats with Analgesia ([1]; 2 h after administration, dose 4 mg./kg., 10 rats per dose) | Number of Rats with Analgesia ([1]; 2 h after administration, dose 5 mg./kg., 8 rats per dose) | Number of Rats with Analgesia ([1]; 2 h after administration, dose 8 mg./kg., 8 rats per dose) | Number of Rats with Analgesia ([1]; 2 h after administration, dose 10 mg./kg., 8 rats per dose) | Number of Rats with Analgesia ([1]; 3 h after administration, dose 4 mg./kg., 8 rats per dose) | Number of Rats with Analgesia ([1]; 4 h after administration, dose 5 mg./kg., 8 rats per dose) | Number of Rats with Analgesia ([1]; 4 h after administration, dose 8 mg./kg., 8 rats per dose) | Number of Rats with Analgesia ([1]; 5 h after administration, dose 4 mg./kg., 10 rats per dose) | Number of Rats with Analgesia ([1]; 6 h after administration, dose 8 mg./kg., 10 rats per dose) | Number of Rats with Analgesia ([1]; 6 h after administration, dose 16 mg./kg., 8 rats per dose) | Total Positives ([1]; sum over 1/2, 1 and 2 h, dose 5 mg./kg., 8 rats per dose) | Total Positives ([1]; sum over 1/2, 1 and 2 h, dose 10 mg./kg., 8 rats per dose) | Total Positives ([1]; sum over 1 and 2 h, dose 4 mg./kg., 10 rats per dose)
7: Number of Rats with Analgesia ([1]; 3 h after administration, dose 20 mg./kg., 8 rats per dose) | Number of Rats with Analgesia ([1]; 4 h after administration, dose 20 mg./kg., 8 rats per dose)
0: Number of Rats with Analgesia ([1]; 1/2 h after administration, dose 5 mg./kg., 8 rats per dose) | Number of Rats with Analgesia ([1]; 1/2 h after administration, dose 10 mg./kg., 8 rats per dose) | Number of Rats with Analgesia ([1]; 1 h after administration, dose 4 mg./kg., 8 rats per dose) | Number of Rats with Analgesia ([1]; 1 h after administration, dose 4 mg./kg., 10 rats per dose) | Number of Rats with Analgesia ([1]; 1 h after administration, dose 5 mg./kg., 8 rats per dose) | Number of Rats with Analgesia ([1]; 1 h after administration, dose 8 mg./kg., 8 rats per dose) | Number of Rats with Analgesia ([1]; 1 h after administration, dose 10 mg./kg., 8 rats per dose) | Number of Rats with Analgesia ([1]; 1 h after administration, dose 16 mg./kg., 8 rats per dose) | Number of Rats with Analgesia ([1]; 3 h after administration, dose 4 mg./kg., 10 rats per dose) | Number of Rats with Analgesia ([1]; 4 h after administration, dose 2 mg./kg., 10 rats per dose) | Number of Rats with Analgesia ([1]; 4 h after administration, dose 4 mg./kg., 8 rats per dose) | Number of Rats with Analgesia ([1]; 4 h after administration, dose 4 mg./kg., 10 rats per dose) | Number of Rats with Analgesia ([1]; 5 h after administration, dose 2 mg./kg., 10 rats per dose) | Number of Rats with Analgesia ([1]; 5 h after administration, dose 4 mg./kg., 8 rats per dose) | Number of Rats with Analgesia ([1]; 5 h after administration, dose 5 mg./kg., 8 rats per dose) | Number of Rats with Analgesia ([1]; 5 h after administration, dose 8 mg./kg., 8 rats per dose) | Number of Rats with Analgesia ([1]; 6 h after administration, dose 2 mg./kg., 10 rats per dose) | Number of Rats with Analgesia ([1]; 6 h after administration, dose 4 mg./kg., 8 rats per dose) | Number of Rats with Analgesia ([1]; 6 h after administration, dose 4 mg./kg., 10 rats per dose) | Number of Rats with Analgesia ([1]; 6 h after administration, dose 5 mg./kg., 8 rats per dose) | Number of Rats with Analgesia ([1]; 6 h after administration, dose 8 mg./kg., 8 rats per dose) | Number of Rats with Analgesia ([1]; 6 h after administration, dose 10 mg./kg., 8 rats per dose)
6: Number of Rats with Analgesia ([1]; 3 h after administration, dose 16 mg./kg., 8 rats per dose)
25%: Percent of Rats with Analgesia Diflunisal Alone ([1]; 3 Hrs. after drug, Diflunisal 5 mg./kg., 8 rats per dose)
5: Number of Rats with Analgesia ([1]; 3 h after administration, dose 8 mg./kg., 10 rats per dose) | Number of Rats with Analgesia ([1]; 5 h after administration, dose 20 mg./kg., 8 rats per dose)
